# Legend:
# C57BL/KsJ db/db mice [1] = experiment: Chronic combination treatment of insulin and Compound J in db/db mice (Example BB); assay type: in vivo, mouse; conditions: combination group versus insulin alone
# Protocol: Male C57BL/KsJ db/db mice were purchased at 5 weeks of age from Clea Japan, Inc. (Tokyo, Japan). […] At 19 weeks of age, animals were divided into 2 groups (n=6/group). […] Blood glucose levels in tail vein samples were measured by means of a Glucoloader-F, an automatic glucose analyzer, (A&T Co., Ltd., Tokyo, Japan).
# [2] = test system: streptozotocin diabetic Sprague Dawley rats; experiment: Acute combination treatment of an FBPase inhibitor and an amylin agonist in streptozotocin diabetic rats (Example HH); assay type: in vivo, rat; conditions: pramlintide 10 micrograms i.v., Compound J 300 mg/kg p.o.
# Protocol: Animals are then gavaged with 1 mL 50% glucose, and allowed ad libitum access to food. Blood glucose is collected from the tail vein at 0, 30, 60, 120, 180, and 240 minutes following glucose administration.
# [3] = test system: streptozotocin-induced diabetic rat; experiment: Chronic combination treatment of a fatty acid oxidation inhibitor and an FBPase inhibitor in the streptozotocin-induced diabetic rat (Example JJ); assay type: in vivo; conditions: etomoxir 3-300 mg/kg s.c., Compound J 0.2% w/w food admixture, 2-6 weeks
# Protocol: Male Sprague-Dawley rats (Charles Rivers Laboratories) weighing approximately 120 g at the beginning of the study are housed under standard vivarium conditions and fed standard chow (Purina 5001). Rats are rendered diabetic by injection of 55 mg/kg body weight of streptozotocin (STZ) in citrate buffer, pH 4.7. […] Drug treatment is continued for 2-6 weeks. Blood glucose levels are monitored at regular intervals during the treatment period. At the end of the study, rats are anesthetized and instrumented with jugular vein and carotid artery catheters. Hepatic glucose production is measured using a primed constant infusion of (^3H)-6-glucose. Blood samples are taken after two hours, and the specific activity of glucose measured by […]. Hepatic glucose production rater are calculated by standard methods.
# [4] = test system: Zucker Diabetic Fatty rats; experiment: Acute combination treatment of an insulin secretagogue and Compound J in the ZDF rat (Example X); assay type: in vivo
# Protocol: Experimental Protocol: Zucker Diabetic Fatty rats (9.5 weeks of age) were fasted for 5 hours starting at 8 am. The animals were then divided into 4 treatments groups with statistically similar baseline blood glucose levels. Test compounds were administered by oral gavage. The treatments were as shown below:
# One hour after saline or drug administration, all animals received a simulated meal in the form of an oral bolus of glucose (1 g/kg). Blood glucose was then monitored at regular time intervals for 3 hours. Test compounds were prepared as suspensions in 0.1% carboxymethylcellulose. Blood samples were obtained by nicking of a tail vein. Blood glucose was measured by means of a HemoCue glucose analyzer according to the manufacturer's instructions (HemoCue Inc., Mission Viejo, Calif.). Results are expressed as the mean ± standard error of the mean for all values.
# C57BL/KsJ db/db mice [5] = experiment: Acute combination treatment of a biguanide and an FBPase inhibitor in db/db mice (Example DD); assay type: in vivo, mouse
# Protocol: Male C57BL/KsJ db/db mice were purchased at 5 weeks of age from Clea Japan, Inc. (Tokyo, Japan). The mice were maintained under standard vivarium conditions (24-26° C., 12-hour light cycle, 12-hour dark cycle) and received standard chow and water ad libitum. […] The treatment groups were control, compound J , metformin, and the combination of compound J and metformin. […] Food was removed after treatment. Blood glucose levels in tail vein samples were measured by means of a Glucoloader-F, an automatic glucose analyzer, (A&T Co., Ltd., Tokyo, Japan).
# Goto-Kakizaki (GK) rats = experiment: Acute combination treatment of insulin and an FBPase inhibitor in the Goto-Kakizaki rat (Example CC); assay type: in vivo
# Protocol: Male Goto-Kakizaki (GK) rats were purchased at 9 weeks of age from Charles River Japan, Inc. (Tokyo, Japan). The rats were maintained under standard vivarium conditions (24-26° C., 12-hour light cycle, 12-hour dark cycle) and received standard chow and water ad libitum. At 48 weeks of age, animals were divided into 4 groups (n=6/group) after an overnight fast. The treatment groups were control, Compound J, insulin, and combination of Compound J and insulin. […] Insulin (human recombinant insulin, Penfill N300, Novo Nordisk, Denmark) was subcutaneously injected at the dose of 1.5 U/kg. Blood glucose levels in tail vein samples were measured by means of a Glucoloader-F, an automatic glucose analyzer, (A&T Co., Ltd., Tokyo, Japan).
# Sprague Dawley rats = experiment: Oral glucose lowering in overnight fasted Sprague Dawley rats (Example G); assay type: in vivo, rat; conditions: […]
# Protocol: Oral efficacy of Compound J was assessed in overnight fasted Sprague Dawley rats. […] At 1.5 h or 4 h post drug administration, a blood sample was taken from the tail vein and analyzed for blood glucose by means of an automated glucose analyzer (HemoCue, HemoCue Inc, Mission Viejo, Calif.).
# [6] = test system: Zucker Diabetic Fatty (ZDF) rat; experiment: Glucose lowering in the ZDF rat (Example W); assay type: in vivo; conditions: for Blood Glucose: 0.4% food admixture
# Source text: The Zucker Diabetic Fatty (ZDF) rat is widely used as a model for human NIDDM as the progression of the disease in these rodents is similar to that described for human […] patients. […] Clark J B, Palmer C J (1982) Diabetes 30: 126A Terrettaz J, Jeanrenaud B (1983) Endocrinology 112: 1346-1351.
# Db/db or ob/ob mice = experiment: Acute combination treatment of a glycogen phosphorylase inhibitor and an FBPase inhibitor in db/db or ob/ob mice (Example FF); assay type: in vivo, mouse; conditions: 0.5 to 300 mg/kg p.o.
# Protocol: Db/db or ob/ob mice are purchased at 5 weeks of age from Jackson Laboratories (Bar Harbor, Me.). The mice are maintained under standard vivarium conditions (24-26° C., 12-hour light cycle, 12-hour dark cycle) and receive standard chow and water ad libitum. At more than 10 weeks of age, animals are divided into 4 groups (n=5 to 7/group). […] Food is made available after treatment. Blood glucose levels in tail vein samples are measured by means of standard manual or automated methods.
# [7] = glyburide 100 mg/kg, Compound J 300 mg/kg p.o.
smiles,measurement,setting,value
"CCOC(=O)[C@H](C)NP(=O)(N[C@@H](C)C(=O)OCC)c1ccc(-c2nc(N)sc2CC(C)C)o1 [Compound J, 2-Amino-5-isobutyl-4-{2-[5-(N,N′-bis((S)-1-ethoxycarbonyl)ethyl)phosphonamido]furanyl}thiazole]",decrease of the insulin dose required to reduce plasma glucose to target levels,C57BL/KsJ db/db mice [1],~40%
same,postprandial glucose excursion,[2],attenuated the postprandial glucose excursion
same,Blood Glucose,[3],lowered significantly
same,blood glucose after oral glucose load (FIG. 1),[4]; [7],lowering blood glucose to below baseline levels
same,blood lactate levels (FIG. 2),[4]; [7],increase in blood lactate levels
same,AUC glucose,"[4]; initial 4 hours post drug, glyburide 100 mg/kg, Compound J 300 mg/kg p.o., oral glucose 1 g/kg",1121 ± 82 mg·h/dL
same,maximally efficacious dose,"[4]; pilot studies, ZDF rat",300 mg/kg
same,"Plasma Glucose, % of pretreatment value",C57BL/KsJ db/db mice [5]; after 2 hour,(70.2 +/− 14.6) %
same,Plasma Glucose,"C57BL/KsJ db/db mice [5]; after 2 hour, Compound J and/or metformin 150 mg/kg p.o.",448.6 ± 42.5 mg/dL
same,Plasma Glucose,C57BL/KsJ db/db mice [5]; after 4 hour,376.7 ± 39.9 mg/dL
same,"Plasma Glucose, % of pretreatment value",C57BL/KsJ db/db mice [5]; after 4 hour,(72.4 +/− 5.0) %
same,Plasma Glucose,C57BL/KsJ db/db mice [5]; after 6 hour,357.7 ± 40.4 mg/dL
same,"Plasma Glucose, % of pretreatment value",C57BL/KsJ db/db mice [5]; after 6 hour,(68.7 +/− 5.5) %
same,Plasma Glucose,C57BL/KsJ db/db mice [5]; after 8 hour,386.5 ± 43.1 mg/dL
same,"Plasma Glucose, % of pretreatment value",C57BL/KsJ db/db mice [5]; after 8 hour,(74.2 +/− 5.8) %
same,Plasma Glucose,C57BL/KsJ db/db mice [5]; before (0 hour),514.3 ± 23.0 mg/dL
same,"Plasma Glucose, % of pretreatment value",C57BL/KsJ db/db mice [5]; before (0 hour),(100.0 +/− 0.0) %
same,blood glucose lowering,"C57BL/KsJ db/db mice [5]; db/db mice, acute",lowered blood glucose significantly relative to controls
same,plasma glucose lowering,"Goto-Kakizaki (GK) rats; GK rats, acute",progressively decreased plasma glucose
same,"Plasma Glucose, % of before",Goto-Kakizaki (GK) rats; after 2 hour,(65.6 +/− 6.6) %
same,Plasma Glucose,"Goto-Kakizaki (GK) rats; after 2 hour, Compound J 50 mg/kg p.o., insulin 1.5 U/kg s.c.",106.3 ± 11.0 mg/dL
same,Plasma Glucose,Goto-Kakizaki (GK) rats; after 4 hours,79.6 ± 4.9 mg/dL
same,"Plasma Glucose, % of before",Goto-Kakizaki (GK) rats; after 4 hours,(51.0 +/− 2.7) %
same,Plasma Glucose,Goto-Kakizaki (GK) rats; after 6 hours,35.4 ± 10.8 mg/dL
same,"Plasma Glucose, % of before",Goto-Kakizaki (GK) rats; after 6 hours,(22.6 +/− 6.7) %
same,Plasma Glucose,Goto-Kakizaki (GK) rats; before (0 hour),161.8 ± 6.6 mg/dL
same,"Plasma Glucose, % of before",Goto-Kakizaki (GK) rats; before (0 hour),(100.0 +/− 0.0) %
same,"Glucose Lowering, %",Sprague Dawley rats; Compound J 10 mg/kg p.o.,66%
same,"Glucose Lowering, %",Sprague Dawley rats; Compound J 30 mg/kg p.o.,85%
same,glycemic control,[6],significantly improved glycemic control
same,Blood Glucose,[6]; Day 0,674 ± 20 mg/dL
same,Blood Glucose,[6]; Day 21,452 ± 40 mg/dL
same,blood glucose lowering,Db/db or ob/ob mice,significantly lower blood glucose relative to control values

# From patent US7563774B2, “Combination of FBPase inhibitors and antidiabetic agents useful for the treatment of diabetes” (Metabasis Therapeutics, Inc., priority 2000, dated 2009)
